The results in this text go back to publication PMC4931907 (eLife, 2016).

Assay [1] concerns the target T1, p300 (Homo sapiens, UniProt Q09472).
T1 construct: in vitro acetylation assays with purified histones and a recombinant p300 catalytic domain; purchased Enzo Life Sciences
T1 sequence (Q09472 1287-1663 limits assumed): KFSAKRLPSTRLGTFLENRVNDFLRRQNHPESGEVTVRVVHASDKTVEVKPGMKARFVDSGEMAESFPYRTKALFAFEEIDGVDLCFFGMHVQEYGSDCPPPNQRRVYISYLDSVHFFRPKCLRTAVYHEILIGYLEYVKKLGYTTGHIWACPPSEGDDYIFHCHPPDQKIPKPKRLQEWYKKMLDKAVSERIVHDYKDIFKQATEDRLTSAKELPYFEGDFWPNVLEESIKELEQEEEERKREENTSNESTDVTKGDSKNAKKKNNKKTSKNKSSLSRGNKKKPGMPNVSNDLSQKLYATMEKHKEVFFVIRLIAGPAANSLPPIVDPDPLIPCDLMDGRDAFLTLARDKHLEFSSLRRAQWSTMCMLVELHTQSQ
Put plainly: In vitro HAT assay with recombinant p300, histones and 14C acetyl-CoA. The format is biochemical. The settings on record: for Inhibition of p300 acetyltransferase in vitro: data not shown; for IC50: in vitro HAT assay, recombinant p300 and histones, read-out: IC50, p300 acetyltransferase activity. As for the experimental part: To determine whether salicylate inhibits p300 and other acetyltransferases, we used in vitro acetylation assays with purified histones and a recombinant p300 catalytic domain.
(§1) Figure 1. Salicylate inhibits CBP/p300 in vitro. (A) Recombinant p300, CBP, GCN5, or PCAF and histones were incubated with ^14C-labeled acetyl-CoA with or without sodium salicylate, separated by SDS-PAGE, analyzed by autoradiography, and quantified with Image J software. Acetylation levels are relative to those in untreated controls. (B) Thermal stability assay for sodium salicylate binding to the p300 HAT domain. Tm, melting temperature. (C) and (D) Lineweaver-Burk plots showing kinetic analysis of p300 acetyltransferase inhibition by sodium salicylate. Histone acetylation was measured with several concentrations of acetyl-CoA (C) or histone (D) in the presence or absence of sodium salicylate. DOI: http://dx.doi.org/10.7554/eLife.11156.003 Figure 1—figure supplement 1. […] (A) Dose-response data for inhibition of p300 by salicylate and salicyl-CoA. Acetylation of an H4(3–14) peptide was monitored using direct microfluidic mobility shift analysis as previously described ([Montgomery et al., 2014]; [Fanslau et al., 2010]). Error is given as the 95% confidence interval. […] Error is given as the 95% confidence interval. DOI: http://dx.doi.org/10.7554/eLife.11156.004 [drawing 1] TEXT PRINTED IN THE PICTURE: (A) Salicylate: p300 IC50 (mM): 6.12; Confidence Interval [CI95] (mM): 5.2–7.2 | (A) Salicyl-CoA: p300 IC50 (mM): […]; Confidence Interval [CI95] […] (mM): 0.78–1.4 | (B) Diflunisal-CoA: p300 IC50 (mM): 0.02; Confidence Interval [CI95] (mM): 0.02–0.03
Recombinant HAT ([…]), either p300, CBP, PCAF, or GCN5 (Enzo Life Sciences), and 10 µg of histones (Sigma) were incubated with sodium salicylate (Sigma) in reaction buffer (50 mM HEPES, pH 8.0, 10% glycerol, 1 mM) at 30°C for 30 min and then with 0.1 mCi of ^14C acetyl-CoA at 30°C for 60 min. Reactions were stopped by adding 6x sample buffer and analyzed by SDS-PAGE. The gels were dried, and signals were obtained by autoradiography and quantified with Image J software. To quantify acetylated histone levels, we generated a standard curve from signals of lanes loaded with […] of ^14C labeled histones.

In assay [2] the target is T1, p300. In words: p300 inhibition by direct microfluidic mobility shift analysis, H4(3–14) peptide. The format is biochemical. The settings on record: for IC50: microfluidic mobility shift, H4(3–14) peptide, 5 μM acetyl-CoA; for Fold increased potency of CoA metabolite in comparison with parent drug: ratio of p300 IC50 values. As to the method:
as §1
Salicyl-CoA and diflunisal-CoA were synthesized from their parent carboxylic acids and HPLC purified according to previously reported methods ([Padmakumar et al., 1997]). The purity of each acyl-CoA was confirmed by analytical HPLC prior immediately prior to utilization ([Montgomery et al., 2014]; [Fanslau et al., 2010]). P300 inhibition assays were performed using direct microfluidic mobility shift analysis as previously described. Briefly, p300 reaction mixture (50 mM HEPES, pH 7.5, 50 mM NaCl, 2 mM EDTA, 2 mM DTT, 0.05% Triton-X-100, 50 nM p300, 2 μM FITC-histone H4 peptide) was plated in 384-well plates and allowed to equilibrate at room temperature for 10 min. Reactions were initiated by addition of acetyl-CoA (final concentration = 5 μM), bringing the final assay volume to 30 μL. Assays were quenched after 10 min (<15% product accumulation) by addition of 5 μL of 0.5 M neutral hydroxylamine and transferred to a Perkin-Elmer Lab-Chip EZ-Reader instrument for analysis. Separation conditions were: downstream voltage of −500 V, upstream voltage of −2500 V, and a pressure of −1.5 psi. Percent conversion was calculated by ratiometric measurement of substrate/product peak heights. Percent activity represents the percent conversion of KAT reactions treated with inhibitors relative to untreated control KAT reactions, and corrected for nonenzymatic acetylation. Dose-response analysis of p300 inhibition was performed in triplicate and analyzed by nonlinear least-squares regression fit to Y = 100/(1 + 10∧(Log IC50 – X)*H), where H = Hill slope (variable). IC50 values represent the concentration that inhibits 50% of KAT activity. Calculations were performed using Prism 6 (GraphPad) software.

In the case of `COc1ccc2c(c1)c(CC(=O)O)c(C)n2C(=O)c1ccc(Cl)cc1` [indomethacin], at p300 [1], the “Inhibition of p300 acetyltransferase in vitro” value is “did not detect any inhibitory activity”.

In general, IC50 refers to the midpoint of a concentration-inhibition curve. For `COc1c(C)c2c(c(O)c1C/C=C(\C)CCC(=O)O)C(=O)OC2` [mycophenolic acid], the IC50 at p300 [1] worked out at 664 µM.

With `CCOc1cc(CC(=O)N[C@@H](CC(C)C)c2ccccc2N2CCCCC2)ccc1C(=O)O` [repaglinide], the IC50 on p300 [1] was found to be 374 µM.

On to `CC(C)(COP(=O)(O)OP(=O)(O)OCC1OC(n2cnc3c(N)ncnc32)C(O)C1OP(=O)(O)O)C(O)C(=O)NCCC(=O)NCCSC(=O)c1cc(-c2ccc(F)cc2F)ccc1O` (centres unmarked) [diflunisal-CoA], for which, at p300 [2], the IC50 was found to be 20 µM and the “Fold increased potency of CoA metabolite in comparison with parent drug” value turned out to be 52 fold.

`Nc1ccc(C(=O)O)c(O)c1` [4-Amino- Salicylic Acid, 4-aminosalicylic acid]: on p300 [1], the IC50 came out at 12400 µM.

For the compound `CC(=O)Nc1ccc(O)cc1` [acetaminophen], at p300 [1], the “Inhibition of p300 acetyltransferase in vitro” value is “did not detect any inhibitory activity”.

For `CC(=O)Oc1ccccc1C(=O)O` [Acetyl- Salicylic Acid, acetylsalicylic acid], the IC50 at p300 [1] came to 14200 µM.

Consider `Nc1ccc(O)c(C(=O)O)c1` [5-Amino- Salicylic Acid, 5-aminosalicylic acid], for which the IC50 at p300 [1] was found to be 7600 µM.

In the case of `CC(C)(COP(=O)(O)OP(=O)(O)OC[C@H]1O[C@@H](n2cnc3c(N)ncnc32)[C@H](O)[C@@H]1OP(=O)(O)O)[C@@H](O)C(=O)NCCC(=O)NCCSC(=O)c1ccccc1O` [salicyl-CoA], at p300 [2], the IC50 came to 220 µM and the “Fold increased potency of CoA metabolite in comparison with parent drug” value is listed as 28 fold.
